The values that follow come from patent US20230159509A1 (Amathus Therapeutics, Inc., priority 2020, published 2023).

The target in the experiment is T1, TRAP1 enzyme (Homo sapiens, UniProt Q12931).
T1 construct: 150 nM Trap1 enzyme was incubated with various concentrations of the test compound
T1 sequence (Q12931 60-704): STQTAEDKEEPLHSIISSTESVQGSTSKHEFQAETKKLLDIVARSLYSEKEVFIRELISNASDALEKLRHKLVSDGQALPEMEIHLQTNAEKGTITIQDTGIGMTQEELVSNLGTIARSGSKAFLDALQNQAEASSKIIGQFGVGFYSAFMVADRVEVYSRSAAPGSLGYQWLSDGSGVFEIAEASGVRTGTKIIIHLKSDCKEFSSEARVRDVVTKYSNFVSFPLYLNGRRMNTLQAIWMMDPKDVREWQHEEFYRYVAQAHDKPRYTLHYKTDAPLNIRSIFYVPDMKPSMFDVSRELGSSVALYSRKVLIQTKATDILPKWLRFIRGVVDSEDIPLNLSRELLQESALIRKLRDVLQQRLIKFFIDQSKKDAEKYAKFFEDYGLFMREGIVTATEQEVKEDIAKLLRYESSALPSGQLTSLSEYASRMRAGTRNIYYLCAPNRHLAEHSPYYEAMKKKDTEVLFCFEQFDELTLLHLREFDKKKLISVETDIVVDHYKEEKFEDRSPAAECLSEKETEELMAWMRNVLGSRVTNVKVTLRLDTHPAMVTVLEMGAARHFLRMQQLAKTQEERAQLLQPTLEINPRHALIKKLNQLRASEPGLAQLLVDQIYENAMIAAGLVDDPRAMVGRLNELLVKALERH
Briefly: ADP Glo assay of TRAP1 ATPase activity. The following applies: for EC50: concentration for half maximal activation, read-out: ADP GLO DRC: GeoMean EC50; for Emax: maximal percent activation, read-out: ADP GLO DRC: Mean Emax. Type of experiment: biochemical. In outline: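 ADP-Glo luminescence quantifying ADP from 150 nM TRAP1 preincubated 30 min at 37° C with compound (0.79–100 μM), then 20 μM ATP for 60 min at 37° C. Buffer: 25 mM Pipes pH 7.5, 40 mM KCl, 0.05 mM MgCl2, EGTA, BSA, detergents. ADP from ATP/ADP standard curve; Emax and EC50 from sigmoidal fit.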
Background: In ADP-Glo the light output rises with the ADP produced.

In general, EC50 refers to the concentration needed to bring the measured effect to its halfway point. The term Emax denotes the maximal effect, on the per cent scale that the assay sets. With `COc1ncc(NC(=O)c2csc(-c3ccccc3)n2)cc1S(=O)(=O)Nc1c(C)csc1C` [compound 1985, N-(5-(N-(2,4-dimethylthiophen-3-yl)sulfamoyl)-6-methoxypyridin-3-yl)-2-phenylthiazole-4-carboxamide], the EC50 was less than 10 µM and the maximum response (Emax) lay within 160 to 199%.
For `COc1ncc(NC(=O)c2coc(-c3ccccc3)n2)cc1S(=O)(=O)Nc1c(C)cccc1C1CC1` [compound 1986, N-(5-(N-(2-cyclopropyl-6-methylphenyl)sulfamoyl)-6-methoxypyridin-3-yl)-2-phenyloxazole-4-carboxamide], in that order: less than 10 µM and 200 to 300%.
Turning to `COc1ccc(F)cc1C(=O)Nc1cnc(OC)c(S(=O)(=O)Nc2c(C)cccc2C)c1` [compound 1990, N-(5-(N-(2,6-dimethylphenyl)sulfamoyl)-6-methoxypyridin-3-yl)-5-fluoro-2-methoxybenzamide], the EC50 fell in the range of 10 to 20 µM and the Emax lay within 200 to 300%.
`COc1ncc(NC(=O)c2coc(-c3ccccc3)n2)cc1S(=O)(=O)Nc1ccc(F)c(F)c1C` [compound 2000]: the EC50 was in the range of 10 to 20 µM and the Emax was 200 to 300%.
In the case of `COc1ncc(NC(=O)c2coc(-c3ccccc3)n2)cc1S(=O)(=O)Nc1cc(F)c(F)cc1C` [compound 2002], the EC50 lay within 10 to 20 µM and the Emax was in the range of 160 to 199%.
For `COc1ncc(NC(=O)c2csc(-c3ccccc3)n2)cc1S(=O)(=O)Nc1ccccc1CO` [compound 2004], in that order: 10 to 20 µM and 160 to 199%.
For `COc1ncc(NC(=O)c2csc(-c3ccccc3)n2)cc1S(=O)(=O)Nc1ccc(C(F)(F)F)cn1` [compound 2005], in that order: 20 to 100 µM and 119 to 159%.
Take `COc1ncc(NC(=O)c2csc(-c3ccccc3)n2)cc1S(=O)(=O)Nc1c(C#N)cccc1C(F)(F)F` [compound 2068]: the EC50 lay within 20 to 100 µM and the Emax lay within 200 to 300%.
For `COc1ncc(NC(=O)c2csc(-c3ccccc3)n2)cc1S(=O)(=O)Nc1ncc(C(F)(F)F)cn1` [compound 2069], in that order: 20 to 100 µM and 200 to 300%.
As for `COc1ncc(NC(=O)c2coc(-c3ccccc3)n2)cc1S(=O)(=O)Nc1c(C)ccc(C#N)c1C` [compound 2072], the EC50 was less than 10 µM and the Emax lay within 160 to 199%.
As to `COc1ncc(NC(=O)c2csc(-c3ccccc3)n2)cc1S(=O)(=O)Nc1sc2c(c1C#N)CCCC2` [compound 2088], the 50% effective concentration (EC50) lay in the range of 20 to 100 µM and the maximum response (Emax) fell in the range of 200 to 300%.
Take `COc1ncc(NC(=O)c2c[nH]c(-c3ccccc3)n2)cc1S(=O)(=O)Nc1c(C)cccc1C` [compound 2092]: the concentration for a half-maximal effect (EC50) is less than 10 µM and the Emax was 200 to 300%.
Consider `COc1ncc(NC(=O)c2ncc(-c3ccccc3)o2)cc1S(=O)(=O)Nc1cccc(C(F)(F)F)n1` [compound 2119], for which the concentration giving a half-maximal response (EC50) lay within 20 to 100 µM and the Emax is 200 to 300%.
In the case of `COc1ncc(NC(=O)c2csc(-c3ccccc3)n2)cc1S(=O)(=O)Nc1cccc(C#N)n1` [compound 2142], the concentration giving a half-maximal response (EC50) was 20 to 100 µM and the Emax was 200 to 300%.
For `COc1ncc(NC(=O)c2ncc(-c3ccccc3)o2)cc1S(=O)(=O)Nc1cccc(C#N)n1` [compound 2148], the EC50 was 20 to 100 µM and the Emax lay in the range of 160 to 199%.
Take `COc1ncc(NC(=O)c2coc(-c3cc(F)c(F)c(F)c3)n2)cc1S(=O)(=O)Nc1cccc(C(F)(F)F)n1` [compound 2151]: the half-maximal effective concentration (EC50) was in the range of 20 to 100 µM and the Emax lay in the range of 200 to 300%.
Taken in the same sequence, the figures for `COc1ncc(NC(=O)c2csc(-c3ccccc3)n2)cc1S(=O)(=O)Nc1cc(F)c(C)cc1C#N` [compound 2155] were 10 to 20 µM and 200 to 300%.
Regarding `COc1ncc(NC(=O)c2coc(-c3ccccc3)n2)cc1S(=O)(=O)Nc1cc(C(F)(F)F)n[nH]1` [compound 2156], the EC50 is 20 to 100 µM and the Emax is 200 to 300%.
As for `COc1ncc(NC(=O)c2coc(-c3ccccc3)n2)cc1S(=O)(=O)Nc1cccc(C#N)n1` [compound 2157], the EC50 was in the range of 20 to 100 µM and the Emax is 160 to 199%.
Regarding `COc1ncc(NC(=O)c2ncc(-c3ccccc3)o2)cc1S(=O)(=O)Nc1cc(C(F)(F)F)n[nH]1` [compound 2361], the EC50 fell in the range of 20 to 100 µM and the maximal effect (Emax) was in the range of 119 to 159%.
For the compound `COc1ncc(NC(=O)c2csc(-c3ccccc3)n2)cc1S(=O)(=O)Nc1cc(C(F)(F)F)ncc1C` [compound 2365], the EC50 is 20 to 100 µM and the Emax is 200 to 300%.
For `COc1ncc(NC(=O)c2ncc(-c3ccccc3)o2)cc1S(=O)(=O)Nc1ccc(F)c(F)c1C` [compound 2366], in that order: less than 10 µM and 160 to 199%.
As to `COc1ncc(NC(=O)c2coc(-c3ccccc3)n2)cc1S(=O)(=O)Nc1ccc(F)cc1C(C)C` [compound 2381], the EC50 is less than 10 µM and the Emax lay within 200 to 300%.
Consider `COc1ncc(NC(=O)c2coc(-c3cccnc3)n2)cc1S(=O)(=O)Nc1c(C)cccc1C` [compound 2387], for which the half-maximal effective concentration (EC50) was 20 to 100 µM and the maximum response (Emax) lay within 200 to 300%.
On to `COc1ncc(NC(=O)c2csc(-c3cccnc3)n2)cc1S(=O)(=O)Nc1ccc(F)c(F)c1C` [compound 2390], for which the EC50 is 10 to 20 µM and the Emax fell in the range of 200 to 300%.
Consider `COc1ncc(NC(=O)c2ncc(-c3ccccc3)o2)cc1S(=O)(=O)Nc1nc(C(C)(C)C)ns1` [compound 2396], for which the 50% effective concentration (EC50) was 20 to 100 µM and the Emax is 160 to 199%.
For `COc1ncc(NC(=O)c2cnc(-c3ccccc3)o2)cc1S(=O)(=O)Nc1cccc(C(F)(F)F)n1` [compound 2397], the 50% effective concentration (EC50) was 20 to 100 µM and the Emax lay in the range of 119 to 159%.
Taken in the same sequence, the figures for `COc1ncc(NC(=O)c2coc(-c3ccccc3)n2)cc1S(=O)(=O)Nc1nc(C(C)(C)C)ns1` [compound 2403] were 20 to 100 µM and 200 to 300%.
On to `COc1ncc(NC(=O)c2csc(-c3cc(F)c(F)c(F)c3)n2)cc1S(=O)(=O)Nc1cc(C)n(C(C)C)n1` [compound 2407], for which the 50% effective concentration (EC50) lay within 10 to 20 µM and the Emax fell in the range of 119 to 159%.
For `Cc1cccc(C)c1NS(=O)(=O)c1cc(NC(=O)c2csc(-c3ccccc3)n2)cnc1OCC(O)CO` (centres unmarked) [compound 2418], in that order: less than 10 µM and 160 to 199%.
For `COc1ncc(NC(=O)c2csc(-c3ccccc3OCC(O)CO)n2)cc1S(=O)(=O)Nc1c(C)cccc1C` (centres unmarked) [compound 2427], in that order: less than 10 µM and 200 to 300%.
Turning to `COc1ncc(NC(=O)c2csc(-c3ccccc3)n2)cc1S(=O)(=O)N(CC(O)CO)c1ccc(Cl)cc1` (centres unmarked) [compound 2431], the concentration giving a half-maximal response (EC50) was less than 10 µM and the Emax is 160 to 199%.
Regarding `COc1ncc(NC(=O)c2csc(-c3cccc(Cl)n3)n2)cc1S(=O)(=O)Nc1c(C)cccc1C` [compound 2445], the EC50 was less than 10 µM and the Emax lay within 160 to 199%.
Consider `COc1ncc(NC(=O)c2coc(-c3ccccc3)n2)cc1S(=O)(=O)Nc1cccc2cnc(C)cc12` [compound 2447], for which the concentration giving a half-maximal response (EC50) was in the range of 10 to 20 µM and the maximal effect (Emax) is 160 to 199%.
`COc1ncc(NC(=O)c2csc(-c3cccc(OCC4COC(C)(C)O4)n3)n2)cc1S(=O)(=O)Nc1c(C)cccc1C` (centres unmarked) [compound 2454]: the EC50 is less than 10 µM and the maximal response (Emax) lay in the range of 119 to 159%.
Taken in the same sequence, the figures for `COc1ncc(NC(=O)c2csc(-c3cccc(OCC(O)CO)n3)n2)cc1S(=O)(=O)Nc1c(C)cccc1C` (centres unmarked) [compound 2463] were less than 10 µM and 200 to 300%.
For `COc1ncc(NC(=O)c2csc(-c3cc(F)c(F)c(F)c3)n2)cc1S(=O)(=O)Nc1c(C)csc1C` [compound 2466], the concentration giving a half-maximal response (EC50) was less than 10 µM and the maximal response (Emax) is 160 to 199%.
As to `COc1ncc(NC(=O)c2ncc(-c3ccccc3)o2)cc1S(=O)(=O)Nc1c(C)cccc1C` [compound 2470], the EC50 is less than 10 µM and the Emax was in the range of 160 to 199%.
In the case of `COc1ncc(NC(=O)c2c[nH]c(C(F)(F)F)n2)cc1S(=O)(=O)Nc1c(C)cccc1C` [compound 2474], the EC50 was in the range of 20 to 100 µM and the Emax was in the range of 160 to 199%.
Taken in the same sequence, the figures for `COc1ncc(NC(=O)c2ncoc2C(C)C)cc1S(=O)(=O)Nc1ccc(Cl)cc1` [compound 2487] were 10 to 20 µM and 160 to 199%.
With `[2H]c1c([2H])c([2H])c(C([2H])([2H])[2H])c(NS(=O)(=O)c2cc(NC(=O)c3csc(-c4ccccc4)n3)cnc2OC)c1[2H]` [compound 2492], the EC50 was less than 10 µM and the maximum response (Emax) was 119 to 159%.
For `[2H]c1c([2H])c([2H])c(C([2H])([2H])[2H])c(NS(=O)(=O)c2cc(NC(=S)c3coc(-c4ccccc4)n3)cnc2OC)c1[2H]` [compound 2493], the EC50 lay in the range of 20 to 100 µM and the maximal response (Emax) was 160 to 199%.
Turning to `COc1ncc(NC(=O)c2csc(C(C)C)n2)cc1S(=O)(=O)Nc1c(C)cccc1C` [compound 2496], the half-maximal effective concentration (EC50) is 10 to 20 µM and the maximal response (Emax) was 160 to 199%.
